Measured values published in patent publication US8785457B2 (Cellzome Limited, priority 2009, dated 2014).

Assays:
Type in all cases: binding
[1] = molecular target: T1, PI3Kalpha (PI3Ka) (Homo sapiens, UniProt P42336); assay: kinobeads assay, PI3Kalpha; details: kinobeads assay, Table 6
T1 construct: endogenous in cells; host or cells: cell lysate
Method in brief: (§1)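 Read-out is multiplexed immunodetection of kinase eluted from phenylmorpholin-chromen ligand beads after their incubation in cell lysate with test compound at various concentrations. Reduced capture reflects competition, and per-kinase dose-response curves yield IC50.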

[2] = molecular target: T2, PI3K delta (PI3 Kd) (Homo sapiens, UniProt O00329); assay: kinobeads assay, PI3K delta; details: kinobeads assay, Table 6; read-out: Inhibition values (IC50) PI3Kd
T2 construct: endogenous in cells; host or cells: Jurkat, clone E6-1 (ATCC TIB-152) cell lysate
T2 sequence (O00329 whole entry): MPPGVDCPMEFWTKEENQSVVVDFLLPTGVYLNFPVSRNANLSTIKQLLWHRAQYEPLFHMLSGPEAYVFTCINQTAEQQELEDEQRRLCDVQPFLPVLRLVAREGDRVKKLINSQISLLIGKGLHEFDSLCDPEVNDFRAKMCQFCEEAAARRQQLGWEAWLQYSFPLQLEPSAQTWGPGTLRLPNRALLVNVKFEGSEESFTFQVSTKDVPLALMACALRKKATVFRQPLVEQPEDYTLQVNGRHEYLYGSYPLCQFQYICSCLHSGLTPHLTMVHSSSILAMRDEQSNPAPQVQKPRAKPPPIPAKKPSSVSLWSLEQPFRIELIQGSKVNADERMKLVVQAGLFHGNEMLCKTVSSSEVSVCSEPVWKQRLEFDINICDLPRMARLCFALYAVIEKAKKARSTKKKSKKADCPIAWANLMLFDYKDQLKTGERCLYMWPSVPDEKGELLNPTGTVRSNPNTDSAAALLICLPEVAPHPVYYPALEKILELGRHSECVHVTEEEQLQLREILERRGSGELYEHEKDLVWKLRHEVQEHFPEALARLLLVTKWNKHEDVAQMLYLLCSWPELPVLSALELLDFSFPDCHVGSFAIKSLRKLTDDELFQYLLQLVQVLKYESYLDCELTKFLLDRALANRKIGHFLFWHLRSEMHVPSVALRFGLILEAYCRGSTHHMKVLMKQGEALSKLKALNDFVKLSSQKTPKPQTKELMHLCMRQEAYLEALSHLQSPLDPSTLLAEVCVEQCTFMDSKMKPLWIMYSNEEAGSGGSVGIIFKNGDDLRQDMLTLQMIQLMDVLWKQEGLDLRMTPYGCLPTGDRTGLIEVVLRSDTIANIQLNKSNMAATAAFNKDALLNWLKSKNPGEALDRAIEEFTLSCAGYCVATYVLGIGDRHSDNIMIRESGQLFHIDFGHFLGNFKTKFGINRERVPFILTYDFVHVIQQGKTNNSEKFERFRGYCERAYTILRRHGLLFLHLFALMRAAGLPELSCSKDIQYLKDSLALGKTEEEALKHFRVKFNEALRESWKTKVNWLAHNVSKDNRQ
T2 sequence (P27986 whole entry partner): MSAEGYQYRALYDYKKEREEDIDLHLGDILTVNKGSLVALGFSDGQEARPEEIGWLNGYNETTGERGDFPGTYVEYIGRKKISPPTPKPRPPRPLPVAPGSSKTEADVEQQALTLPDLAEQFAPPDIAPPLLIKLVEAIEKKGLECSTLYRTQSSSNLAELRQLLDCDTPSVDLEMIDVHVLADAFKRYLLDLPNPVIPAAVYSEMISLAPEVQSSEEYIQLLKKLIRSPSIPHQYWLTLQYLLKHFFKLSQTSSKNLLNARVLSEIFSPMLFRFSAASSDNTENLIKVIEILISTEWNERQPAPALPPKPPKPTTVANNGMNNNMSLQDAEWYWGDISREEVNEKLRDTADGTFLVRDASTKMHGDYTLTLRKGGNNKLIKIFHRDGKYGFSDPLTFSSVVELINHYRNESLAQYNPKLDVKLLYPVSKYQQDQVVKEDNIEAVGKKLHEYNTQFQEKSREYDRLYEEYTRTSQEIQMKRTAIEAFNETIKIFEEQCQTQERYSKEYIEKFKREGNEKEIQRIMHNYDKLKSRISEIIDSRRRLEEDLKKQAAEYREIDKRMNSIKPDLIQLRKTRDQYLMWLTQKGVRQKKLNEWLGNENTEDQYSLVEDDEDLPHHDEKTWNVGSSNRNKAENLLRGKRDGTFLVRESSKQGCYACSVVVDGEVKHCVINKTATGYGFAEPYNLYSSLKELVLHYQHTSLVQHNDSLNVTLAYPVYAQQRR
Method in brief: (§2)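 Competitive binding in Jurkat cell lysate (5 mg/ml total protein): test compounds at various concentrations competed with beads bearing immobilized phenylmorpholin-chromen ligand. Bead-bound kinases were eluted and quantified by antibody dot blot with infrared detection; IC50 values came from dose-response curves.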

[3] = molecular target: T3, DNA-dependent protein kinase (DNA-PK) (Homo sapiens, UniProt P78527); assay: kinobeads assay, DNA-PK; details: kinobeads assay, Table 6; read-out: Inhibition values (IC50) DNAPK
T3 construct: endogenous in cells; host or cells: Jurkat, clone E6-1 (ATCC TIB-152) cell lysate
Method in brief: as §2

[4] = molecular target: T4, PI3 Kgamma (PI3 Kg) (Homo sapiens, UniProt P48736); assay: kinobeads assay, PI3Kgamma; details: kinobeads assay, Table 6; read-out: Inhibition values (IC50) PI3Kg
T4 construct: endogenous in cells; host or cells: cell lysate
T4 sequence (P48736 whole entry): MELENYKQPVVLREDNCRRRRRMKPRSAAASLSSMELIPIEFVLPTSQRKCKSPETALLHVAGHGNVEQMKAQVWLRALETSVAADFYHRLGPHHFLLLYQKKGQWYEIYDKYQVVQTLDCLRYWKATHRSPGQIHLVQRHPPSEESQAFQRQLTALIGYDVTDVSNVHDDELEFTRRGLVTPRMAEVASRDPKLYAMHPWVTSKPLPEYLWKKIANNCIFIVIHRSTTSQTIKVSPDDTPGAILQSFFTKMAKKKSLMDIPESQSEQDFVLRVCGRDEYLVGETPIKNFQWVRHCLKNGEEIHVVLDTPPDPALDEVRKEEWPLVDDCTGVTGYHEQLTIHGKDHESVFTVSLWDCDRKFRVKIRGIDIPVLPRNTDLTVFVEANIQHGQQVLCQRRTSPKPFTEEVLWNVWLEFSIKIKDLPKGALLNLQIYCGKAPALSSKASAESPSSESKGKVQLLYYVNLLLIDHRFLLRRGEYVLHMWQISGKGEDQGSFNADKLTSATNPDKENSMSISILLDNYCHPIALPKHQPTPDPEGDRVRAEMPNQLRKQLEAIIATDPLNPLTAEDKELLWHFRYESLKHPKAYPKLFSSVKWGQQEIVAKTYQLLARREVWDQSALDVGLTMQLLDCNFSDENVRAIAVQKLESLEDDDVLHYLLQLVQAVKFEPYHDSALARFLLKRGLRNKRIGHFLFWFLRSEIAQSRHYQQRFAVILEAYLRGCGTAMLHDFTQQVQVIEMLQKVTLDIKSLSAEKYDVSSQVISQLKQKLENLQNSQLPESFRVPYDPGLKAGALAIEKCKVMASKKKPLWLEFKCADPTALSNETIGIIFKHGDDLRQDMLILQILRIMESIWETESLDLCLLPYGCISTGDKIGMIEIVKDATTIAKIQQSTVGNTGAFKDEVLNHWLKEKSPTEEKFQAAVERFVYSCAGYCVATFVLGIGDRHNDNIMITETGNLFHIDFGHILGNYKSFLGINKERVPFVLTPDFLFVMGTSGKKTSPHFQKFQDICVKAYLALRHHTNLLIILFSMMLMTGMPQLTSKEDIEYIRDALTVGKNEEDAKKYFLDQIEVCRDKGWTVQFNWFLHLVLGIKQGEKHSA
Method in brief: as §1

T1 sequence (P42336 whole entry): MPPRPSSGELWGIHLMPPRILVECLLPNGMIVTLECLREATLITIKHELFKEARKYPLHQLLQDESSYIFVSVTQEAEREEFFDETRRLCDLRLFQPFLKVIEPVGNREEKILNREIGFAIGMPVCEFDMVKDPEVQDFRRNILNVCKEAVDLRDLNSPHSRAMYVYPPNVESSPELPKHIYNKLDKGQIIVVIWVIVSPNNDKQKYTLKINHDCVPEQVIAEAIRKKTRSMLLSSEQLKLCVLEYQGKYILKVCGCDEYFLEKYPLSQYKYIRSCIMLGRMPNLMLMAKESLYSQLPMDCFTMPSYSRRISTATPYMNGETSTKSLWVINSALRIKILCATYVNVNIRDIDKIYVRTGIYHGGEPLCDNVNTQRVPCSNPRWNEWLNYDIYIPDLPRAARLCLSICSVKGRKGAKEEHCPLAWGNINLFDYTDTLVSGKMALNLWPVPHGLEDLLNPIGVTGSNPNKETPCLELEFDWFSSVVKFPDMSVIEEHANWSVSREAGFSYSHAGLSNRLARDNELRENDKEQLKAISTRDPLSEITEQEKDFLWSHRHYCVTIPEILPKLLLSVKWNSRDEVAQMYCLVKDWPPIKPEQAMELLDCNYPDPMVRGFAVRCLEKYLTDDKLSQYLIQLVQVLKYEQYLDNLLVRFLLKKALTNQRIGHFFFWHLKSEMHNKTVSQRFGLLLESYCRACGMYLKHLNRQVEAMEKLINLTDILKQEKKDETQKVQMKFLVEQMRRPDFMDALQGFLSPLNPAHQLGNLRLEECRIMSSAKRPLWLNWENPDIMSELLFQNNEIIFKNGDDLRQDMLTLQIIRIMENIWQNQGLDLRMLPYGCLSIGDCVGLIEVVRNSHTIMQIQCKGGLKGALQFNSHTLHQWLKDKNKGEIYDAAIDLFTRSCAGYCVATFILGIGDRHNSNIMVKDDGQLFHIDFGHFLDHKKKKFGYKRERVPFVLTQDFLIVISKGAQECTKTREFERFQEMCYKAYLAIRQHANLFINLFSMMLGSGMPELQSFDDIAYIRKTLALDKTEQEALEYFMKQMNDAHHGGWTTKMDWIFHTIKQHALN
T1 sequence (P27986 whole entry partner): as the sequence (P27986 whole entry partner) above

| SMILES | Inhibition values (IC50) PI3Ka [1] | IC50 [2] [µM] | IC50 [3] [µM] | IC50 [4] [µM] |
| --- | --- | --- | --- | --- |
| CCNC(=O)Nc1cc(F)c(-c2nc3c(c(N4CCOC[C@@H]4C)n2)CCN(C)C3)cc1F [Example 108, (S)-1-(2,5-difluoro-4-(7-methyl-4-(3-methylmorpholino)-5,6,7,8-tetrahydropyrido[3,4-d]pyrimidin-2-yl)phenyl)-3-ethylurea] | D (D >10 μM) | > 10 | > 10 | > 10 |
| CCNC(=O)Nc1ccc(-c2nc3c(c(N4CCOC[C@@H]4C)n2)CCN(C)C3)c(F)c1 [Example 110, (S)-1-ethyl-3-(3-fluoro-4-(7-methyl-4-(3-methylmorpholino)-5,6,7,8-tetrahydropyrido[3,4-d]pyrimidin-2-yl)phenyl)urea] | D (D >10 μM) | > 10 | > 10 | > 10 |
| CCNC(=O)Nc1ccc(-c2nc3c(c(N4CCOC[C@@H]4C)n2)CN(C(=O)OCC)C3)c(F)c1 [Example 113, (S)-ethyl-2-(4-(3-ethylureido)-2-fluorophenyl)-4-(3-methylmorpholino)-5H-pyrrolo[3,4-d]pyrimidine-6(7H)-carboxylate] | D (D >10 μM) | > 10 | > 10 | > 10 |

The next lines start with the values.

| Inhibition values (IC50) PI3Ka [1] | IC50 [2] [µM] | IC50 [3] [µM] | IC50 [4] [µM] | SMILES |
| --- | --- | --- | --- | --- |
| D (D >10 μM) | > 10 | > 10 | > 10 | CCOC(=O)N1Cc2nc(-c3ccc(NC(=O)NCCF)cc3)nc(N3CCOC[C@@H]3C)c2C1 [Example 120, (S)-ethyl 2-(4-(3-(2-fluoroethyl)ureido)phenyl)-4-(3-methylmorpholino)-5H-pyrrolo[3,4-d]pyrimidine-6(7H)-carboxylate] |
| D (D >10 μM) | > 10 | > 10 | > 10 | CCOC(=O)N1Cc2nc(-c3ccc(NC(=O)Nc4ccncc4)cc3)nc(N3CCOC[C@@H]3C)c2C1 [Example 121, (S)-ethyl 4-(3-methylmorpholino)-2-(4-(3-(pyridin-4-yl)ureido)phenyl)-5H-pyrrolo[3,4-d]pyrimidine-6(7H)-carboxylate] |
| D (D >10 μM) | > 10 | > 10 | > 10 | CCNC(=O)Nc1ccc(-c2nc3c(c(N4CCOC[C@@H]4C)n2)CN(C2CCN(C(=O)OC)CC2)C3)cc1F [Example 122, (S)-methyl 4-(2-(4-(3-ethylureido)-3-fluorophenyl)-4-(3-methylmorpholino)-5H-pyrrolo[3,4-d]pyrimidin-6(7H)-yl)piperidine-1-carboxylate] |
| D (D >10 μM) | > 10 | > 10 | > 10 | CCOC(=O)N1Cc2nc(-c3ccc(NC(=O)NC4CC4)cc3F)nc(N3CCOC[C@@H]3C)c2C1 [Example 131, (S)-ethyl 2-(4-(3-cyclopropylureido)-2-fluorophenyl)-4-(3-methylmorpholino)-5H-pyrrolo[3,4-d]pyrimidine-6(7H)-carboxylate] |
